Assay results: patent publication US9266876B2 (Actelion Pharmaceuticals Ltd., priority 2012, dated 2016)

Target: human CXCR3A (Homo sapiens (Human), UniProt P49682)
Assay: FLIPR assay
Assay type: cell-based
Conditions: CHO-K1 cells expressing the human CXCR3A coupled to Galpha(16); CXCL10 agonist 20 nM; Fluo-4-AM fluorescence; mean values if determined several times
Experimental: The bioactivity of compounds is tested in a fluorometric imaging plate reader (FLIPR: Molecular Devices) using engineered CHO-K1 cells expressing the human CXCR3A coupled to a G protein (Galpha(16)). Cells are plated the day prior to bioassay in F12 medium supplemented with 10% FBS and G418 and hygromycin antibiotics to maintain recombinant selection. At the day of bioassay, cells are washed and dye loaded for one hour with Fluo-4-AM (Invitrogen) in Hanks Balanced Salt Solution (Invitrogen), buffered with 20 mM Hepes at pH 7.4 and sodium bicarbonate (0.015%), containing 5 mM probenecid. […] Cells are washed free of excess dye and 60 microliter of wash buffer is added. Stock solutions of test compounds are made up at a concentration of 10 mM in DMSO, and serially diluted in dilution buffer to concentrations required for inhibition dose response curves. After a 10 minute incubation period at 37° C., 10 microliters of each compound dilution are transferred from a compound plate to the plate containing the recombinant cells in the FLIPR instrument according to the manufacturer's instructions. Following basal readings, 10 microliter CXCL10 agonist at a concentration of 20 nM (from Peprotech) is added, again using the FLIPR instrument. Changes in fluorescence are monitored before and after addition of the test compounds. Emission peak values above base level after CXCL10 addition are exported after base line subtraction. The program XLfit is used to fit the data to a single site dose response curve and to calculate IC50 values.

Chain of human CXCR3A (P49682 whole entry): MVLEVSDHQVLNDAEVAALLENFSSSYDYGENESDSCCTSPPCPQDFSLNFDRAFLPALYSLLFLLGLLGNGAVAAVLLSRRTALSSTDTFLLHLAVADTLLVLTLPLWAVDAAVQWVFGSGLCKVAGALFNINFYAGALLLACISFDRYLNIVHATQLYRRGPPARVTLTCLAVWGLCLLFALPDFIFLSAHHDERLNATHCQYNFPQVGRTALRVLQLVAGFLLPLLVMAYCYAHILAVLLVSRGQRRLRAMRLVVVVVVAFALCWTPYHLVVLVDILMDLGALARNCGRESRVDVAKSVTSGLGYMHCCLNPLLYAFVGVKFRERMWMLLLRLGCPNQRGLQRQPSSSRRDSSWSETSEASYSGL

1-{(R)-4-[4-(1H-Benzoimidazol-2-yl)-thiazol-5-yl]-2-methoxymethyl-piperazin-1-yl}-2-pyrrolo[2,3-b]pyridin-1-yl-ethanone [Example 20]
IC50: 69 nM

O=C(Cn1ccc(C(F)(F)F)n1)N1CCN(c2scnc2-c2nc3ccccc3[nH]2)CC1 [Example 5, 1-{4-[4-(1H-Benzoimidazol-2-yl)-thiazol-5-yl]-piperazin-1-yl}-2-(3-trifluoromethyl-pyrazol-1-yl)-ethanone]
IC50: 33 nM

Cc1ccn(CC(=O)N2CCN(c3scnc3-c3nc4ccccc4[nH]3)CC2)n1 [Example 6, 1-{4-[4-(1H-Benzoimidazol-2-yl)-thiazol-5-yl]-piperazin-1-yl}-2-(3-methyl-pyrazol-1-yl)-ethanone]
IC50: 130 nM

Cc1nc(CC(=O)N2CCN(c3scnc3-c3nc4ccccc4[nH]3)CC2)cs1 [Example 7, 1-{4-[4-(1H-Benzoimidazol-2-yl)-thiazol-5-yl]-piperazin-1-yl}-2-(2-methyl-thiazol-4-yl)-ethanone]
IC50: 516 nM

O=C(Cc1cn2nc(Cl)ccc2n1)N1CCN(c2scnc2-c2nc3ccccc3[nH]2)CC1 [Example 8, 1-{4-[4-(1H-Benzoimidazol-2-yl)-thiazol-5-yl]-piperazin-1-yl}-2-(6-chloro-imidazo[1,2-b]pyridazin-2-yl)-ethanone]
IC50: 392 nM

Cc1nc2ccccn2c1CC(=O)N1CCN(c2scnc2-c2nc3ccccc3[nH]2)CC1 [Example 9, 1-{4-[4-(1H-Benzoimidazol-2-yl)-thiazol-5-yl]-piperazin-1-yl}-2-(2-methyl-imidazo[1,2-a]pyridin-3-yl)-ethanone]
IC50: 90 nM

Cc1nc(C)c(CC(=O)N2CCN(c3scnc3-c3nc4ccccc4[nH]3)CC2)s1 [Example 11, 1-{4-[4-(1H-Benzoimidazol-2-yl)-thiazol-5-yl]-piperazin-1-yl}-2-(2,4-dimethyl-thiazol-5-yl)-ethanone]
IC50: 311 nM

COc1ccc2onc(CC(=O)N3CCN(c4scnc4-c4nc5ccccc5[nH]4)CC3)c2c1 [Example 12, 1-{4-[4-(1H-Benzoimidazol-2-yl)-thiazol-5-yl]-piperazin-1-yl}-2-(5-methoxy-benzo[d]isoxazol-3-yl)-ethanone]
IC50: 314 nM

Cc1cc(C)n(CC(=O)N2CCN(c3scnc3-c3nc4ccccc4[nH]3)CC2)n1 [Example 13, 1-{4-[4-(1H-Benzoimidazol-2-yl)-thiazol-5-yl]-piperazin-1-yl}-2-(3,5-dimethyl-pyrazol-1-yl)-ethanone]
IC50: 92 nM

C[C@@H]1CN(c2scnc2-c2nc3c(F)cccc3[nH]2)CCN1C(=O)Cn1ccc2cccnc21 [Example 21, 1-{(R)-4-[4-(4-Fluoro-1H-benzoimidazol-2-yl)-thiazol-5-yl]-2-methyl-piperazin-1-yl}-2-pyrrolo[2,3-b]pyridin-1-yl-ethanone]
IC50: 2 nM

C[C@@H]1CN(c2scnc2-c2nc3cc(Cl)c(F)cc3[nH]2)CCN1C(=O)Cn1ccc2cccnc21 [Example 26, 1-{(R)-4-[4-(5-Chloro-6-fluoro-1H-benzoimidazol-2-yl)-thiazol-5-yl]-2-methyl-piperazin-1-yl}-2-pyrrolo[2,3-b]pyridin-1-yl-ethanone]
IC50: 1 nM

C[C@@H]1CN(c2scnc2-c2nc3c(F)c(F)ccc3[nH]2)CCN1C(=O)Cn1ccc2cccnc21 [Example 28, 1-{(R)-4-[4-(4,5-Difluoro-1H-benzoimidazol-2-yl)-thiazol-5-yl]-2-methyl-piperazin-1-yl}-2-pyrrolo[2,3-b]pyridin-1-yl-ethanone]
IC50: 1 nM

Cn1c(=O)n(CC(=O)N2CCN(c3scnc3-c3nc4c(Cl)cccc4[nH]3)CC2)c2ccccc21 [Example 29, 1-(2-{4-[4-(4-Chloro-1H-benzoimidazol-2-yl)-thiazol-5-yl]-piperazin-1-yl}-2-oxo-ethyl)-3-methyl-1,3-dihydro-benzoimidazol-2-one]
IC50: 4 nM

COc1ccc2[nH]c(-c3ncsc3N3CCN(C(=O)Cn4c(=O)n(C)c5ccccc54)CC3)nc2c1 [Example 33, 1-(2-{4-[4-(5-Methoxy-1H-benzoimidazol-2-yl)-thiazol-5-yl]-piperazin-1-yl}-2-oxo-ethyl)-3-methyl-1,3-dihydro-benzoimidazol-2-one]
IC50: 5 nM

Cn1c(=O)n(CC(=O)N2CCN(c3scnc3-c3nc4ccc(F)cc4[nH]3)CC2)c2ccccc21 [Example 34, 1-(2-{4-[4-(6-Fluoro-1H-benzoimidazol-2-yl)-thiazol-5-yl]-piperazin-1-yl}-2-oxo-ethyl)-3-methyl-1,3-dihydro-benzoimidazol-2-one]
IC50: 10 nM

COc1cc2nc(-c3ncsc3N3CCN(C(=O)Cn4c(=O)n(C)c5ccccc54)CC3)[nH]c2cc1OC [Example 36, 1-(2-{4-[4-(5,6-Dimethoxy-1H-benzoimidazol-2-yl)-thiazol-5-yl]-piperazin-1-yl}-2-oxo-ethyl)-3-methyl-1,3-dihydro-benzoimidazol-2-one]
IC50: 17 nM

Cc1nc(-c2nc3ccccc3[nH]2)c(N2CCN(C(=O)Cn3ccc4cccnc43)CC2)s1 [Example 40, 1-{4-[4-(1H-Benzoimidazol-2-yl)-2-methyl-thiazol-5-yl]-piperazin-1-yl}-2-pyrrolo[2,3-b]pyridin-1-yl-ethanone]
IC50: 20 nM

O=C(Cn1ccc2cccnc21)N1CCN(c2sc(-c3ccccc3)nc2-c2nc3ccccc3[nH]2)CC1 [Example 41, 1-{4-[4-(1H-Benzoimidazol-2-yl)-2-phenyl-thiazol-5-yl]-piperazin-1-yl}-2-pyrrolo[2,3-b]pyridin-1-yl-ethanone]
IC50: 77 nM

O=C(Cn1ccc2cccnc21)N1CCN(c2sc(Cl)nc2-c2nc3ccccc3[nH]2)CC1 [Example 42, 1-{4-[4-(1H-Benzoimidazol-2-yl)-2-chloro-thiazol-5-yl]-piperazin-1-yl}-2-pyrrolo[2,3-b]pyridin-1-yl-ethanone]
IC50: 547 nM

O=C(Cn1cnc2cccnc21)N1CCCN(c2scnc2-c2nc3ccccc3[nH]2)CC1 [Example 45, 1-{4-[4-(1H-Benzoimidazol-2-yl)-thiazol-5-yl]-[1,4]diazepan-1-yl}-2-imidazo[4,5-b]pyridin-3-yl-ethanone]
IC50: 48 nM

C[C@H]1CN(c2scnc2-c2nc3ccccc3[nH]2)CCN1C(=O)Cn1cnc2cccnc21 [Example 47, 1-{(S)-4-[4-(1H-Benzoimidazol-2-yl)-thiazol-5-yl]-2-methyl-piperazin-1-yl}-2-imidazo[4,5-b]pyridin-3-yl-ethanone]
IC50: 18 nM

O=C(Cn1cnc2cccnc21)N1CCC(c2scnc2-c2nc3ccccc3[nH]2)CC1 [Example 48, 1-{4-[4-(1H-Benzoimidazol-2-yl)-thiazol-5-yl]-piperidin-1-yl}-2-imidazo[4,5-b]pyridin-3-yl-ethanone]
IC50: 448 nM

COc1cccc2c1ccn2CC(=O)N1CCN(c2scnc2-c2nc3ccccc3[nH]2)CC1 [Example 52, 1-{4-[4-(1H-Benzoimidazol-2-yl)-thiazol-5-yl]-piperazin-1-yl}-2-(4-methoxy-indol-1-yl)-ethanone]
IC50: 136 nM

O=C(Cn1ccc2cc(Cl)c(Cl)cc21)N1CCN(c2scnc2-c2nc3ccccc3[nH]2)CC1 [Example 53, 1-{4-[4-(1H-Benzoimidazol-2-yl)-thiazol-5-yl]-piperazin-1-yl}-2-(5,6-dichloro-indol-1-yl)-ethanone]
IC50: 15 nM

O=C(Cn1ccc2ccc(C(F)(F)F)cc21)N1CCN(c2scnc2-c2nc3ccccc3[nH]2)CC1 [Example 54, 1-{4-[4-(1H-Benzoimidazol-2-yl)-thiazol-5-yl]-piperazin-1-yl}-2-(6-trifluoromethyl-indol-1-yl)-ethanone]
IC50: 112 nM

O=C(Cn1ccc2ccc(F)cc21)N1CCN(c2scnc2-c2nc3ccccc3[nH]2)CC1 [Example 56, 1-{4-[4-(1H-Benzoimidazol-2-yl)-thiazol-5-yl]-piperazin-1-yl}-2-(6-fluoro-indol-1-yl)-ethanone]
IC50: 4 nM

Cc1cc2ccccc2n1CC(=O)N1CCN(c2scnc2-c2nc3ccccc3[nH]2)CC1 [Example 58, 1-{4-[4-(1H-Benzoimidazol-2-yl)-thiazol-5-yl]-piperazin-1-yl}-2-(2-methyl-indol-1-yl)-ethanone]
IC50: 34 nM

N#Cc1cn(CC(=O)N2CCN(c3scnc3-c3nc4ccccc4[nH]3)CC2)c2ccccc12 [Example 59, 1-(2-{4-[4-(1H-Benzoimidazol-2-yl)-thiazol-5-yl]-piperazin-1-yl}-2-oxo-ethyl)-1H-indole-3-carbonitrile]
IC50: 4 nM

COc1cc2c(ccn2CC(=O)N2CCN(c3scnc3-c3nc4ccccc4[nH]3)CC2)cc1Cl [Example 62, 1-{4-[4-(1H-Benzoimidazol-2-yl)-thiazol-5-yl]-piperazin-1-yl}-2-(5-chloro-6-methoxy-indol-1-yl)-ethanone]
IC50: 6 nM

Cc1cn(CC(=O)N2CCN(c3scnc3-c3nc4ccccc4[nH]3)CC2)c2ccc(F)cc12 [Example 63, 1-{4-[4-(1H-Benzoimidazol-2-yl)-thiazol-5-yl]-piperazin-1-yl}-2-(5-fluoro-3-methyl-indol-1-yl)-ethanone]
IC50: 13 nM

O=C(Cn1c(C(F)(F)F)nc2ccccc21)N1CCN(c2scnc2-c2nc3ccccc3[nH]2)CC1 [Example 64, 1-{4-[4-(1H-Benzoimidazol-2-yl)-thiazol-5-yl]-piperazin-1-yl}-2-(2-trifluoromethyl-benzoimidazol-1-yl)-ethanone]
IC50: 111 nM
